In patent US20240158413A1, “FUSED POLYCYCLIC SUBSTITUTED 5-CARBOXYLIC ACID THIENOPYRIMIDINE DIONE COMPOUND AND USE THEREOF” (SOTER BIOPHARMA PTE. LTD., priority 2021, published 2024):

Key:
[1] = Pharmacokinetic evaluation in mice (plasma); format: in vivo; settings: mouse, male CD-1 mice
Procedure: Objective of assay: To study the in vivo pharmacokinetic properties of the compound of the present disclosure in mice.
Each assay compound was mixed with DMAC respectively, and vortexed for 2 minutes. The solution of the assay compound in DMAC was mixed and vortexed for 2 minutes to prepare a clear solution of 10 mg/mL. 0.0600 mL of 10 mg/mL solution was added to 0.300 mL of Solutol, and the mixture was vortexed for 2 minutes. Then 2.400 mL of normal saline was added, and the mixture was vortexed for 2 minutes to obtain a clear solution of 0.2 mg/mL, which was used for administration in PO group, 0.500 mL of the solution for administration in PO group was vortexed for 2 minutes, and 0.0500 mL of DMAC was added. The mixture was vortexed for 2 minutes, and then 0.0500 mL of solutol was added. The mixture was vortexed for 2 minutes, and finally 0.400 mL of normal saline was added. The mixture was vortexed for two minutes to give a clear solution of 0.1 mg/mL, which was filtered through a microporous membrane to give a solution for administration in injection (IV) group.
Four male CD-1 mice were divided into two groups. The animals in the first group were administered intravenously once at a dose of 0.5 mg/kg, wherein the vehicle was 10% DMAC/10% Solutol/80% normal saline, and the administration volume was 5 mL/kg. The animals in the second group were administered orally 2 mg/kg of the assay compound by oral gavage, wherein the oral vehicle was 10% DMAC/10% Solutol/80% normal saline, and the oral volume was 10 mL/kg. Whole blood was collected at 0.033 (IV injection only), 0.083, 0.25, 0.5, 1, 2, 4 and 12 hours post-dose. The whole blood was centrifuged at 3200 g at 2-8° C. for 10 min to obtain plasma. The concentration of the assay compound in plasma was determined by ILC/MS/MS method, and the pharmacokinetic parameters were calculated by Phoenix WinNonlin software.
The parameters have the following meanings: IV: intravenous injection; PO: oral administration; C0: initial plasma drug concentration; Cmax: maximum drug concentration in systemic circulation; Tmax: time required to reach Cmax; T1/2: half-life; Vdss: apparent volume of distribution; Cl: clearance rate; AUC0-last: area under the drug-time curve.

[2] = test system: endometriotic lesion in mice; test: In vivo efficacy evaluation in a mouse model of endometriosis
From the text: Objective of assay: To evaluate the efficacy of the compound of the present disclosure in a mouse model of endometriosis.
Animal estrous cycle detection in 8-week-old C57BL6/J female mice: Through vaginal smear observation, mice that met the specific estrous cycle on the day of the assay were selected according to the actual smear results because the entire estrous cycle was about 4 days. Modeling: The uterine horns of donor mice in an estrous cycle were excised, and opened longitudinally. The excised biopsies were cut to a size of 2×2 mm. Recipient mice were anesthetized with isoflurane gas, and a 1 cm incision was made along the midline to expose the abdominal cavity. Endometriotic mice: four uterine fragments of donors were sutured to the peritoneal wall of mice in an estrous cycle; sham-operated mice: abdominal fat fragments of similar size were sutured. The grafted tissue as well as the abdominal muscle and skin were sutured using 8-0 black silk thread. Sham group (sham-operation group): the abdominal cavity of each mouse in the Sham group was opened to transplant fat fragments, and the rest of the steps were the same.
After 4 weeks of modelmg, a second laparotomy was performed, and the ectopic lesion volume (V1) was measured using a vernier caliper and calculated to determine the success of the modeling. Twelve mice with relatively uniform V1 were selected and divided into 2 groups with 6 nice in each group: Vehicle (vehicle control group) and drug group.
Sham group (sham-operation group, 6 animals): normal feeding; Vehicle group (vehicle control group, 6 animals); vehicle was intragastrically administered once a day for 8 consecutive weeks. […]
After 8 weeks of administration, samples were obtained from the mice: the ectopic lesion volume (V2) was measured using a vernier caliper and calculated. The inhibition rate was calculated using a calculation formula of: ectopic lesion volume V=π/6×length×width×height, wherein length represents the length of an ectopic lesion, width represents the width of an ectopic lesion, and height represents the height of an ectopic lesion;

[3] = target: human gonadotropin-releasing hormone receptor (Homo sapiens (Human), UniProt P30968); test: FLIPR calcium flow assay of inhibitory activity on gonadotropin-releasing hormone receptor in GnRH/HEK293 cells; format: cell-based; settings: Ca2+ flow, agonist Leuprolide acetate, read-out: IC50 on inhibiting the activity of human gonadotropin-releasing hormone receptor
Sequence of human gonadotropin-releasing hormone receptor (P30968 whole entry): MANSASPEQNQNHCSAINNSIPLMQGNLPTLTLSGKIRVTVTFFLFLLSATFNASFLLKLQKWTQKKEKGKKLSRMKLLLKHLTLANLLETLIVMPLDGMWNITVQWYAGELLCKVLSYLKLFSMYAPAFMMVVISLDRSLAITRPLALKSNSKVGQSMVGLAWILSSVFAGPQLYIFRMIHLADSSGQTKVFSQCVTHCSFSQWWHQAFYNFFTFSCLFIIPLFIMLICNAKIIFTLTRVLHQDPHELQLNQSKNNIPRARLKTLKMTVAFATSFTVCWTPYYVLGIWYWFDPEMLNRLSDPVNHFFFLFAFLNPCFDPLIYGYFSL
Procedure: Objective of assay: to detect the inhibitory activity of assay compounds on gonadotropin-releasing hormone receptor at the cellular level using FLIPR detection technology.
GnRH/HEK293 (human embryonic kidney cell 293) cultured cells in the logarithmic growth phase were washed with DPBS (Dulbecco's phosphate buffered saline) buffer, and an appropriate amount of 0.05% EDTA (ethylenediaminetetraacetic acid)-trypsin was added. The cells were placed in a carbon dioxide incubator at 37° C. for digestion for 1-2 minutes, and then removed from the incubator. A medium was added to the cells to terminate the digestion. Cells were dispersed by repeated pipetting and harvested by centrifugation. […]
On the next day, 20 μL, of 2×Fluo-4Direct™ buffer was added to each well, and the plate was incubated in a 5% CO2, 37° C. incubator for 50 minutes. […] The fluorescence signal was read. Then 10 μL of the reference compound as an agonist was added, and the fluorescent signal was read. EC50 was calculated, and the agonist with a concentration of 6×EC50 was prepared.
2 mM assay compounds and an appropriate concentration of reference compound were serially diluted 4-fold to 10 concentrations in ECHO, and 900 nL of that was transferred to a compound plate. […] The fluorescent signal was read. Then 10 μL of agonist with a concentration of 6×EC50 was added to the cell plate and the fluorescent signal was read. […]

Compound: O=C(O)c1scc2[nH]c(=O)n(-c3cc4c(cc3F)OCCCOc3ccc(F)c(F)c3CO4)c(=O)c12 [Compound 1]
- AUC(0-t) ([1]; IV 0.5 mg/kg): 48.3 µM·h
- C0 ([1]; IV 0.5 mg/kg): 13.5 µM
- clearance ([1]; IV 0.5 mg/kg): 0.332 mL/min/kg
- half-life ([1]; IV 0.5 mg/kg): 5.66 h
- Vd ([1]; IV 0.5 mg/kg, read-out: Vdss): 0.159 L/kg
- bioavailability ([1]; PO 2 mg/kg vs IV 0.5 mg/kg): 95.3%
- AUC(0-t) ([1]; PO 2 mg/kg): 143 µM·h
- Cmax ([1]; PO 2 mg/kg): 25.8 µM
- Tmax ([1]; PO 2 mg/kg): 0.5 h
- half-life ([1]; PO 2 mg/kg): 5.03 h
- Volume of endometriotic lesion in mice V1 ([2]; Mean ± SD, n = 6, 4 weeks after modeling, before administration (baseline)): 9.89 ± 1.51 mm^3
- Volume of endometriotic lesion in mice V2 ([2]; Mean ± SD, n = 6, after 8 weeks of 100 mpk intragastric once daily): 6.78 ± 4.46 mm^3
- Inhibition rate ([2]; ectopic lesion volume, 100 mpk intragastric once daily for 8 weeks): 107.5%
- IC50 [3]: 3.2 nM
